Reference: PubChem BioAssay AID652053 (Broad Institute, 2013)

Tested on: Huh7 psiCHECK-miR122 Renilla luciferase reporter, 48 h
Assay: suppression of miR-122 activity, Renilla luciferase sensor – cell-based, Huh7 psiCHECK-miR122, cherry-pick, dose response (AID 652053)

Compound	AC40 [µM]
Cc1sc(NC(=O)c2ccccc2)c(C(c2ccc(Cl)cc2)N2CCN(CCO)CC2)c1C (stereo not drawn)	22.3
C[C@H](CO)N1C[C@H](C)[C@H](CN(C)CC2CCCCC2)Oc2c(NC(=O)C3CCOCC3)cccc2C1=O	1.95
CCOc1ccccc1N1CCN(C(=O)c2cc3ccccc3cc2OC)CC1	4.78
O=S(=O)(Nc1ccc2ccccc2c1)c1ccccc1	12.5
CC(=O)c1ccc(NS(=O)(=O)c2c(C)cc(C)cc2C)cc1	1.82
CCCCCCNS(=O)(=O)c1ccc(Cl)s1	13.9
CSc1nc(-c2ccc(C)cc2)[nH]c1S(=O)(=O)c1ccccc1	15.9
C/C(=N\NC(=O)c1cccc(S(=O)(=O)Nc2cccc(Cl)c2)c1)c1cccs1	3.3
O=S1(=O)c2ccc(Br)cc2N2CCC[C@H]2CN1Cc1ccccc1	34.9
CCCNC(=O)NC[C@@H]1[C@@H](c2ccc(C3=CCCC3)cc2)[C@@H](CO)N1C(=O)CC	16.9
COc1cccc(N2CCN(C(=O)c3ccc(CS(=O)c4ccccc4Cl)o3)CC2)c1 (stereo not drawn)	15.8
CCc1nnc(NC(=O)c2ccc(NS(=O)(=O)c3ccccc3)cc2)s1	2.68
CN1c2ccc(-c3ccccc3)cc2[C@H]2[C@H](CCN2S(=O)(=O)c2ccccc2F)[C@H]1CO	3.63
COc1ccc(C(C)(C)C)cc1S(=O)(=O)n1ccnc1C	4.82
CN1C(=O)c2cc(NC(=O)Cc3ccccc3)ccc2OC[C@@H]2O[C@@H](CC(=O)NCC3CC3)CC[C@@H]21	0.732
CCOc1ccc(S(=O)(=O)/N=C(/Nc2ccc(C)c(S(=O)(=O)N3CCOCC3)c2)c2ccccc2)cc1	2.23
S=C(Nc1ccc(Cl)c(Cl)c1)NC1CCCCC1	1.37
Cc1cc(C)c(S(=O)(=O)NCCn2ccc3ccccc32)c(C)c1	1.93
COc1cc(C)c(C(C)C)cc1S(=O)(=O)N1CCN(C)CC1	7.96
Cc1cccc(S(=O)(=O)NC2CCCCCCC2)c1	3.27
O=C1COc2ccc(S(=O)(=O)Nc3ccc(F)cc3)cc2N1	5.23
CCOc1ccccc1NC(=O)Cn1nnc(C(=O)NCc2cccs2)c1N	5.91
Oc1ccc(/C=N/NP(=S)(c2ccccc2)c2ccccc2)cc1	7.07
O=C(Cc1ccccc1)N1C[C@@H]2[C@H](c3ccccc31)[C@H](CO)N2C(=O)Nc1ccc(F)cc1	4.71
CC(C)(C)C(=O)Nc1cc(S(=O)(=O)Nc2ccc(Cl)cc2)ccc1Cl	2.74

Compound	AC40 [µM]
COc1ccc(S(=O)(=O)Nc2cc3c(C(C)=O)c(C)oc3c3ccccc23)cc1	14.9
Cc1ccc(C)c(S(=O)(=O)NC2CCS(=O)(=O)C2)c1 (stereo not drawn)	8.66
C[C@@H]1CN([C@@H](C)CO)C(=O)c2cccc(NC(=O)C3CC3)c2O[C@@H]1CN(C)Cc1ccc(C(=O)Nc2ccccc2N)cc1	3.72
Cc1cc(C)c(S(=O)(=O)NCc2ccccn2)cc1C	9.76
C[C@H](CO)N1C[C@H](C)[C@@H](CN(C)Cc2ccccc2)Oc2c(NC(=O)C3CC3)cccc2C1=O	6.79
COc1ccc(-c2cc(C)no2)cc1S(=O)(=O)NCC(C)c1ccccc1 (stereo not drawn)	2.74
Cc1ccc(NS(=O)(=O)c2cc(OCC(N)=O)c(C)cc2Cl)cc1C	7.14
C[C@H]1CN([C@@H](C)CO)C(=O)c2cccc(NC(=O)C3CCOCC3)c2O[C@@H]1CN(C)Cc1ccc(C(F)(F)F)cc1	1.51
O=C(Nc1ccc(N2CCOCC2)c(S(=O)(=O)Nc2cc(Cl)ccc2Cl)c1)c1cccnc1	0.681
CC(=O)N1CCOc2ccc(S(=O)(=O)NCCc3ccc(Cl)cc3)cc21	5.14
CN(c1cccc(NC(=O)c2ccc(Cl)c(S(=O)(=O)Nc3ccccc3)c2)c1)S(C)(=O)=O	2.18
Nc1ncc(Br)cc1S(=O)(=O)NC1CCCCC1	2.19
O=C(NCc1ccncc1)c1cccc(S(=O)(=O)Nc2ccc(F)cc2)c1	3.23
CC(c1ccco1)N(C(=O)CSc1ccc(Br)cc1)c1ccccn1 (stereo not drawn)	14.4
O=C(NNS(=O)(=O)c1ccc(Cl)cc1)c1cccc(S(=O)(=O)N2CCOCC2)c1	5.2
Cc1ccc(C)c(S(=O)(=O)NC(C)CCc2ccccc2)c1 (stereo not drawn)	3.81
Cc1ccc(S(=O)(=O)NCc2ccco2)c(C)c1C	1.79
Cc1cc(S(=O)(=O)Nc2ccc3ccccc3c2)c(C)s1	1.06
C[C@H](CO)N1C[C@H](C)[C@H](CN(C)Cc2ccc(C(=O)Nc3ccccc3N)cc2)Oc2ccc(NS(=O)(=O)c3ccccc3)cc2CC1=O	3.45
C[C@@H]1CN([C@H](C)CO)S(=O)(=O)c2ccc(-c3ccc(F)cc3)cc2O[C@@H]1CN(C)Cc1ccccc1C(=O)O	5.45
CCOc1ccc(Br)cc1S(=O)(=O)Nc1cccc(S(=O)(=O)N(CC)CC)c1	7.75
C[C@@H]1CN([C@H](C)CO)C(=O)c2cccc(NS(=O)(=O)c3ccccc3)c2O[C@@H]1CN(C)Cc1ccc(C(=O)Nc2ccccc2N)cc1	17.2
Cc1ccc(-c2nn(Cc3ccccc3)cc2C(=O)N2CCN(c3ccccn3)CC2)cc1	2.44
COc1ccc(NS(=O)(=O)c2c(C)cc(C)cc2C)cc1	4.53
C[C@H](CO)N1C[C@H](C)[C@@H](CN(C)Cc2ccc(C(F)(F)F)cc2)Oc2c(NC(=O)c3cnccn3)cccc2C1=O	1.43

Compound	AC40 [µM]
COc1ccc(S(=O)(=O)NCCN2CCOCC2)c2ccccc12	0.789
Cc1ccc(NS(=O)(=O)c2cc(-c3cc(C)no3)ccc2C(C)C)nc1	2.23
C[C@@H]1CN([C@@H](C)CO)C(=O)Cc2cc(NC(=O)Nc3ccc(C(F)(F)F)cc3)ccc2O[C@@H]1CN(C)C(=O)Nc1cccc2ccccc12	4.39
COc1ccc2oc(C(=O)N3CCc4ccccc43)c(C)c2c1	5.37
Cc1ccc(S(=O)(=O)N2CC[C@@H]3[C@@H](CO)Nc4ccc(-c5ccccc5F)cc4[C@@H]32)cc1	1.69
COc1ccc(S(=O)(=O)NCc2ccccn2)cc1NC(=O)c1ccc(C)cc1	7.81
CCOC(=O)C1CCCCN1C(=O)c1cc2ccc(OC)cc2c2cc(OC)c(OC)cc12 (stereo not drawn)	4.65
C[C@@H]1CN([C@H](C)CO)C(=O)c2cc(N(C)C)ccc2O[C@@H]1CN(C)S(=O)(=O)c1ccc(Cl)cc1	6.57
CCOc1ccc(NS(=O)(=O)c2ccc(NC(=S)NC(=O)C(C)C)cc2)cc1	5.48
O=S(=O)(c1ccc(F)cc1)N1C[C@H]2[C@@H](c3ccccc31)[C@@H](CO)N2Cc1ccc2c(c1)OCO2	4.82
O=C(C(=O)N(Cc1ccccc1)Cc1ccccc1)c1c(-c2ccccc2)[nH]c2ccccc12	1
N#Cc1c(NC(=O)c2ccccc2)sc2c1CCC2	29
C[C@H]1CN([C@@H](C)CO)C(=O)c2cccc(NC(=O)C3CCOCC3)c2O[C@@H]1CN(C)Cc1ccc2c(c1)OCO2	18.2
COc1cc(C)c(S(=O)(=O)Nc2ccccc2F)cc1C	3.14
O=C(Nc1nc2ccc(S(=O)(=O)N3CCCC3)cc2s1)C1CCCCC1	14.8
O=S(=O)(NCC1CCCO1)c1ccc(Oc2ccccc2)cc1 (stereo not drawn)	5.86
CC(=O)Nc1ccc(S(=O)(=O)C(C#N)c2nc3ccccc3nc2NCCO)cc1 (stereo not drawn)	25.9
Cc1nc2ccc(NS(=O)(=O)c3c(C)c(C)cc(C)c3C)cc2s1	0.68
C[C@@H]1CN([C@@H](C)CO)C(=O)c2cccc(NC(=O)C3CCCCC3)c2O[C@@H]1CN(C)Cc1ccc(C(=O)Nc2ccccc2N)cc1	6.92
Cc1ccccc1OCC(=O)NNC(=O)Nc1ccc(Cl)cc1	17.4
C[C@@H]1CN([C@H](C)CO)C(=O)c2cccc(NC(=O)c3ccc(-c4nccs4)cc3)c2O[C@@H]1CN(C)Cc1ccc(C(=O)Nc2ccccc2N)cc1	6.24
CCCCNS(=O)(=O)c1ccc2nc(-c3cccnc3)cc(C(=O)NCCOC)c2c1	1.18
O=C(Nc1nc2ccc(Cl)cc2s1)c1ccco1	20.8
CCN(CC)c1ccc(N)cc1S(=O)(=O)Nc1ccc(OC)cc1	27.3
O=C(C1CCCCC1)N1[C@H](CO)[C@@H]2c3ccccc3N(S(=O)(=O)c3ccccc3)C[C@@H]21	3.09

Compound	AC40 [µM]
CCNc1ccc(S(=O)(=O)N(C)C)cc1NCC(=O)Nc1ccc(F)c(Cl)c1	1.45
O=C(Nc1sc2c(c1C(=O)O)CCC2)c1cccs1	9.16
COc1ccccc1CNC(=O)C[C@H]1CC[C@H]2[C@@H](COc3ccc(NS(=O)(=O)c4ccc(C)cc4)cc3C(=O)N2C)O1	21.5
Cc1ccc(C(=O)Nc2ccccc2-c2ccccc2)cc1S(=O)(=O)Nc1ccccc1	3.64
CCCNC(=O)NC[C@@H]1[C@@H](c2ccc(C3=CCCCC3)cc2)[C@H](CO)N1C(C)=O	2.47
Fc1cccc(NC(=S)NC2CCCCCCC2)c1	4.22
Cc1ccc(-c2cc(C(=O)NCCCn3ccnc3)c3ccccc3n2)s1	11.1
CCOc1ccc(S(=O)(=O)NCc2ccco2)c2ccccc12	3.06
C[C@@H]1CN([C@@H](C)CO)C(=O)c2cccc(NS(=O)(=O)c3ccc(F)cc3)c2O[C@@H]1CN(C)Cc1ccc(C(=O)Nc2ccccc2N)cc1	10.4
CCOC(=O)Nc1nc(-c2ccccc2)c(C(=O)c2ccc(Cl)cc2)s1	13.8
C/C(CC(=O)Nc1ccccn1)=N\NC(=O)c1ccccc1O	2.59
CCN(CC)c1ccc(NC(=O)c2cnccn2)cc1S(=O)(=O)Nc1ccc(OC)cc1	0.976
C[C@H](CO)N1C[C@H](C)[C@@H](CN(C)C(=O)Nc2cccc3ccccc23)Oc2ccc(NC(=O)Nc3ccc(C(F)(F)F)cc3)cc2CC1=O	7.77
Cc1ccc(C(=O)Nc2ccc(C)c(S(=O)(=O)Nc3ccccc3Cl)c2)s1	3.03
COc1ccc(NS(=O)(=O)c2ccc(OC)c(OC)c2)cc1OC	5.37
COc1cc(C(CCN2CCOCC2)c2c(OC)cc(OC)c3c(-c4ccccc4)cc(=O)oc23)cc(OC)c1OC (stereo not drawn)	1.2
COc1ccc(S(=O)(=O)NC2CCCCC2)cc1C	3.14
C[C@@H]1CN([C@H](C)CO)C(=O)c2cccc(NC(=O)Nc3ccccc3)c2O[C@@H]1CN(C)Cc1ccc(C(=O)Nc2ccccc2N)cc1	20.5
O=C(NCc1ccco1)c1ccc(Cl)c(S(=O)(=O)Nc2ccccc2)c1	4.59
COc1ccc(NS(=O)(=O)c2cc(NC(=O)c3ccc(Cl)cc3)ccc2N2CCOCC2)cc1	< 0.26
CCn1c(=O)c2cc(S(=O)(=O)NC3CCCCC3)ccc2n(CC)c1=O	3.31
COC(=O)c1ccc(NS(=O)(=O)c2cc(C)ccc2OC)cc1	4.89
O=C(Nc1ccc(S(=O)(=O)NCCc2ccccc2)cc1)c1ccc(Br)o1	0.54
